Source: ChEMBL document CHEMBL4138123, “Design, synthesis and biological evaluation of novel pyrazolochalcones as potential modulators of PI3K/Akt/mTOR pathway and inducers of apoptosis in breast cancer cells” (Eur J Med Chem, 2017)

Assays:
Type in all cases: functional
HCC 2998 [1] = assay: Cytotoxicity against human HCC2998 cells assessed as growth inhibition after 48 hrs by sulforhodamine B assay; settings: HCC 2998, 48 h
SW-620 [2] = assay: Cytotoxicity against human SW620 cells assessed as growth inhibition after 48 hrs by sulforhodamine B assay; settings: SW-620, 48 h
LOX IMVI = assay: Cytotoxicity against human LOXIMVI cells assessed as growth inhibition after 48 hrs by sulforhodamine B assay
MDA-MB-435 = assay: Cytotoxicity against human MDA-MB-435 cells assessed as growth inhibition after 48 hrs by sulforhodamine B assay; settings: MDA-MB-435, 48 h
NCI/ADR-RES [3] = assay: Cytotoxicity against human NCI/ADR-RES cells assessed as growth inhibition after 48 hrs by sulforhodamine B assay
A498 [4] = assay: Cytotoxicity against human A498 cells assessed as growth inhibition after 48 hrs by sulforhodamine B assay; settings: A498, 48 h
SN12C [5] = assay: Cytotoxicity against human SN12C cells assessed as growth inhibition after 48 hrs by sulforhodamine B assay
MCF7 [6] = assay: Cytotoxicity against human MCF7 cells assessed as growth inhibition after 48 hrs by sulforhodamine B assay; settings: MCF7, 48 h
Hs-578T [7] = assay: Cytotoxicity against human Hs 578T cells assessed as growth inhibition after 48 hrs by sulforhodamine B assay
T47D [8] = assay: Cytotoxicity against human T47D cells assessed as growth inhibition after 48 hrs by sulforhodamine B assay
OVCAR-4 = assay: Cytotoxicity against human OVCAR4 cells assessed as cell growth at 0.01 uM after 48 hrs by sulforhodamine B assay relative to control; settings: OVCAR-4, 48 h, read-out: Activity
HCT-116 [9] = assay: Cytotoxicity against human HCT116 cells assessed as cell growth at 0.01 uM after 48 hrs by sulforhodamine B assay relative to control; settings: HCT-116, 48 h, read-out: Activity
HOP-62 [10] = assay: Cytotoxicity against human HOP62 cells assessed as cell growth at 0.01 uM after 48 hrs by sulforhodamine B assay relative to control; settings: HOP-62, 48 h, read-out: Activity
SN12C [11] = assay: Cytotoxicity against human SN12C cells assessed as cell growth at 0.01 uM after 48 hrs by sulforhodamine B assay relative to control; settings: read-out: Activity
MDA-MB-231 = assay: Cytotoxicity against human MDA-MB-231 cells assessed as cell growth at 0.01 uM after 48 hrs by sulforhodamine B assay relative to control; settings: MDA-MB-231, 48 h, read-out: Activity
CCRF-CEM = assay: Cytotoxicity against human CCRF-CEM cells assessed as cell growth at 0.1 uM after 48 hrs by sulforhodamine B assay relative to control; settings: read-out: Activity
NCI-H322M [12] = assay: Cytotoxicity against human NCI-H322M cells assessed as cell growth at 0.1 uM after 48 hrs by sulforhodamine B assay relative to control; settings: read-out: Activity
SNB-19 = assay: Cytotoxicity against human SNB19 cells assessed as cell growth at 0.1 uM after 48 hrs by sulforhodamine B assay relative to control; settings: SNB-19, 48 h, read-out: Activity
A498 [13] = assay: Cytotoxicity against human A498 cells assessed as cell growth at 0.1 uM after 48 hrs by sulforhodamine B assay relative to control; settings: A498, 48 h, read-out: Activity
HOP-62 [14] = assay: Cytotoxicity against human HOP62 cells assessed as cell growth at 1 uM after 48 hrs by sulforhodamine B assay relative to control; settings: HOP-62, 48 h, read-out: Activity
NCI-H226 = assay: Cytotoxicity against human NCI-H226 cells assessed as cell growth at 1 uM after 48 hrs by sulforhodamine B assay relative to control; settings: NCI-H226, 48 h, read-out: Activity
HCC 2998 [15] = assay: Cytotoxicity against human HCC2998 cells assessed as cell growth at 1 uM after 48 hrs by sulforhodamine B assay relative to control; settings: HCC 2998, 48 h, read-out: Activity
OVCAR-5 = assay: Cytotoxicity against human OVCAR5 cells assessed as cell growth at 1 uM after 48 hrs by sulforhodamine B assay relative to control; settings: OVCAR-5, 48 h, read-out: Activity
NCI/ADR-RES [16] = assay: Cytotoxicity against human NCI/ADR-RES cells assessed as cell growth at 1 uM after 48 hrs by sulforhodamine B assay relative to control; settings: read-out: Activity
PC-3 = assay: Cytotoxicity against human PC3 cells assessed as cell growth at 1 uM after 48 hrs by sulforhodamine B assay relative to control; settings: PC-3, 48 h, read-out: Activity
T47D [17] = assay: Cytotoxicity against human T47D cells assessed as cell growth at 1 uM after 48 hrs by sulforhodamine B assay relative to control; settings: read-out: Activity
HCT-116 [18] = assay: Cytotoxicity against human HCT116 cells assessed as cell growth at 10 uM after 48 hrs by sulforhodamine B assay relative to control; settings: HCT-116, 48 h, read-out: Activity
HCT-15 [19] = assay: Cytotoxicity against human HCT15 cells assessed as cell growth at 10 uM after 48 hrs by sulforhodamine B assay relative to control; settings: HCT-15, 48 h, read-out: Activity
SW-620 [20] = assay: Cytotoxicity against human SW620 cells assessed as cell growth at 10 uM after 48 hrs by sulforhodamine B assay relative to control; settings: SW-620, 48 h, read-out: Activity
SK-MEL-5 = assay: Cytotoxicity against human SK-MEL-5 cells assessed as cell growth at 10 uM after 48 hrs by sulforhodamine B assay relative to control; settings: SK-MEL-5, 48 h, read-out: Activity
786-0 = assay: Cytotoxicity against human 786-0 cells assessed as cell growth at 10 uM after 48 hrs by sulforhodamine B assay relative to control; settings: 786-0, 48 h, read-out: Activity
NCI-H322M [21] = assay: Cytotoxicity against human NCI-H322M cells assessed as cell growth at 100 uM after 48 hrs by sulforhodamine B assay relative to control; settings: read-out: Activity
HCT-15 [22] = assay: Cytotoxicity against human HCT15 cells assessed as cell growth at 100 uM after 48 hrs by sulforhodamine B assay relative to control; settings: HCT-15, 48 h, read-out: Activity
UACC-62 = assay: Cytotoxicity against human UACC62 cells assessed as cell growth at 100 uM after 48 hrs by sulforhodamine B assay relative to control; settings: UACC-62, 48 h, read-out: Activity
A498 [23] = assay: Cytotoxicity against human A498 cells assessed as cell growth at 100 uM after 48 hrs by sulforhodamine B assay relative to control; settings: A498, 48 h, read-out: Activity
MCF7 [24] = assay: Cytotoxicity against human MCF7 cells assessed as cell growth at 100 uM after 48 hrs by sulforhodamine B assay relative to control; settings: MCF7, 48 h, read-out: Activity
Hs-578T [25] = assay: Cytotoxicity against human Hs 578T cells assessed as cell growth at 100 uM after 48 hrs by sulforhodamine B assay relative to control; settings: read-out: Activity

COc1cc(-c2cc(/C=C/C(=O)c3ccc(F)c(F)c3)[nH]n2)cc(OC)c1OC
LC50 (HCC 2998 [1]): > 100 µM | TGI (HCC 2998 [1]): 34.1 µM | LC50 (lethal concentration, 50% net cell kill) (SW-620 [2]): > 100 µM | TGI (SW-620 [2]): > 100 µM | LC50 (LOX IMVI): 41.5 µM | TGI (LOX IMVI): 12.2 µM | LC50 (MDA-MB-435): > 100 µM | TGI (MDA-MB-435): 13.3 µM | LC50 (NCI/ADR-RES [3]): > 100 µM | TGI (NCI/ADR-RES [3]): 50.5 µM | LC50 (A498 [4]): > 100 µM | TGI (A498 [4]): 7.13 µM | LC50 (SN12C [5]): > 100 µM | TGI (SN12C [5]): 25.5 µM | LC50 (MCF7 [6]): > 100 µM | TGI (MCF7 [6]): 12.3 µM | LC50 (Hs-578T [7]): > 100 µM | TGI (Hs-578T [7]): 36.8 µM | LC50 (T47D [8]): > 100 µM | TGI (T47D [8]): 27 µM | growth at 0.01 µM (OVCAR-4): 90% | growth at 0.01 µM (HCT-116 [9]): 101% | growth at 0.01 µM (HOP-62 [10]): 100% | growth at 0.01 µM (SN12C [11]): 95% | growth at 0.01 µM (MDA-MB-231): 94% | growth at 0.1 µM (CCRF-CEM): 96% | growth at 0.1 µM (NCI-H322M [12]): 94% | growth at 0.1 µM (SNB-19): 87% | growth at 0.1 µM (A498 [13]): 96% | growth at 1 µM (HOP-62 [14]): 94% | growth at 1 µM (NCI-H226): 95% | growth at 1 µM (HCC 2998 [15]): 99% | growth at 1 µM (OVCAR-5): 92% | growth at 1 µM (NCI/ADR-RES [16]): 95% | growth at 1 µM (PC-3): 70% | growth at 1 µM (T47D [17]): 76% | growth at 10 µM (HCT-116 [18]): 9% | growth at 10 µM (HCT-15 [19]): 9% | growth at 10 µM (SW-620 [20]): 12% | growth at 10 µM (SK-MEL-5): -21% | growth at 10 µM (786-0): 11% | growth at 100 µM (NCI-H322M [21]): 3% | growth at 100 µM (HCT-15 [22]): 2% | growth at 100 µM (UACC-62): -81% | growth at 100 µM (A498 [23]): -40% | growth at 100 µM (MCF7 [24]): -20% | growth at 100 µM (Hs-578T [25]): -16%

COc1cc(C(=O)/C=C/c2cc(-c3cc(OC)c(OC)c(OC)c3)n[nH]2)cc(OC)c1OC
LC50 (HCC 2998 [1]): 6.31 µM | TGI (HCC 2998 [1]): 3.39 µM | LC50 (lethal concentration, 50% net cell kill) (SW-620 [2]): 5.97 µM | TGI (SW-620 [2]): 3.08 µM | LC50 (LOX IMVI): 5.57 µM | TGI (LOX IMVI): 2.91 µM | LC50 (MDA-MB-435): 5.82 µM | TGI (MDA-MB-435): 2.95 µM | LC50 (NCI/ADR-RES [3]): > 100 µM | TGI (NCI/ADR-RES [3]): 21.4 µM | LC50 (A498 [4]): 8.02 µM | TGI (A498 [4]): 3.59 µM | LC50 (SN12C [5]): 5.99 µM | TGI (SN12C [5]): 2.97 µM | LC50 (MCF7 [6]): 5.22 µM | TGI (MCF7 [6]): 2.07 µM | LC50 (Hs-578T [7]): > 100 µM | TGI (Hs-578T [7]): 53.9 µM | LC50 (T47D [8]): 5.86 µM | TGI (T47D [8]): 2.57 µM | growth at 0.01 µM (OVCAR-4): 95% | growth at 0.01 µM (HCT-116 [9]): 97% | growth at 0.01 µM (HOP-62 [10]): 97% | growth at 0.01 µM (SN12C [11]): 96% | growth at 0.01 µM (MDA-MB-231): 110% | growth at 0.1 µM (CCRF-CEM): 94% | growth at 0.1 µM (NCI-H322M [12]): 97% | growth at 0.1 µM (SNB-19): 90% | growth at 0.1 µM (A498 [13]): 90% | growth at 1 µM (HOP-62 [14]): 78% | growth at 1 µM (NCI-H226): 86% | growth at 1 µM (HCC 2998 [15]): 99% | growth at 1 µM (OVCAR-5): 89% | growth at 1 µM (NCI/ADR-RES [16]): 95% | growth at 1 µM (PC-3): 74% | growth at 1 µM (T47D [17]): 57% | growth at 10 µM (HCT-116 [18]): -99% | growth at 10 µM (HCT-15 [19]): -71% | growth at 10 µM (SW-620 [20]): -89% | growth at 10 µM (SK-MEL-5): -98% | growth at 10 µM (786-0): -77% | growth at 100 µM (NCI-H322M [21]): -99% | growth at 100 µM (HCT-15 [22]): -72% | growth at 100 µM (UACC-62): -97% | growth at 100 µM (A498 [23]): -98% | growth at 100 µM (MCF7 [24]): -72% | growth at 100 µM (Hs-578T [25]): -4%
